{
  "source": "paper PMC9851200",
  "about": "“Multiparameter phenotypic screening for endogenous TFEB and TFE3 translocation identifies novel chemical series modulating lysosome function” (Autophagy, 2022)",
  "format_in_all_cases": "binding",
  "key": {"[1]": {"target": "T1, kinases (KINOMEscan panel) (Homo sapiens, UniProt Q06418)", "T1 sequence (Q06418 41-890)": "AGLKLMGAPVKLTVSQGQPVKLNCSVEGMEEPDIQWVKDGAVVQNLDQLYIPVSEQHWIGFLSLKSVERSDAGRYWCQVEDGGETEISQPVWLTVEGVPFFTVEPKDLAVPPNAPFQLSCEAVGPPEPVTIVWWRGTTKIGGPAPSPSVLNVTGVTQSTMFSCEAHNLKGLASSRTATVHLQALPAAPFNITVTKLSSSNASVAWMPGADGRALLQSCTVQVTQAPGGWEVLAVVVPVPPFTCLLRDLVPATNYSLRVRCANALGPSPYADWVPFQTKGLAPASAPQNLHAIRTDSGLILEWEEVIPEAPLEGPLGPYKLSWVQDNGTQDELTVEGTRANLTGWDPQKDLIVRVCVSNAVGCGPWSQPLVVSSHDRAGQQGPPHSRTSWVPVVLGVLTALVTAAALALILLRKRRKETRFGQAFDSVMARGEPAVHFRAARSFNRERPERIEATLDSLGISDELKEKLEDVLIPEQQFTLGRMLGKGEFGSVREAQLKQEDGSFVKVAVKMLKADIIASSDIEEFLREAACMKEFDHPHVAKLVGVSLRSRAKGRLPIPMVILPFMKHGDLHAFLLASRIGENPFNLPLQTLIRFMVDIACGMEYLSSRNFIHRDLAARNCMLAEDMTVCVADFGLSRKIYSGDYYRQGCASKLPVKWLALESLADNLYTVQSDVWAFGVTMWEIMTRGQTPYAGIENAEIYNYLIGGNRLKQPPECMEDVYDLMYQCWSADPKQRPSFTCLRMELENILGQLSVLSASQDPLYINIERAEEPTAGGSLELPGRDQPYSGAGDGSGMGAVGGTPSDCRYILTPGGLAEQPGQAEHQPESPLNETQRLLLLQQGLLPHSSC", "conditions": "NEW KINOMEscan"}, "[2]": {"target": "kinases (KINOMEscan panel) (Homo sapiens, UniProt P42336, Q546K)", "conditions": "kinase PIK3CA(Q546K); NEW KINOMEscan"}, "[3]": {"target": "T2, kinases (KINOMEscan panel) (Homo sapiens, UniProt Q92772)", "T2 sequence (Q92772 1-493)": "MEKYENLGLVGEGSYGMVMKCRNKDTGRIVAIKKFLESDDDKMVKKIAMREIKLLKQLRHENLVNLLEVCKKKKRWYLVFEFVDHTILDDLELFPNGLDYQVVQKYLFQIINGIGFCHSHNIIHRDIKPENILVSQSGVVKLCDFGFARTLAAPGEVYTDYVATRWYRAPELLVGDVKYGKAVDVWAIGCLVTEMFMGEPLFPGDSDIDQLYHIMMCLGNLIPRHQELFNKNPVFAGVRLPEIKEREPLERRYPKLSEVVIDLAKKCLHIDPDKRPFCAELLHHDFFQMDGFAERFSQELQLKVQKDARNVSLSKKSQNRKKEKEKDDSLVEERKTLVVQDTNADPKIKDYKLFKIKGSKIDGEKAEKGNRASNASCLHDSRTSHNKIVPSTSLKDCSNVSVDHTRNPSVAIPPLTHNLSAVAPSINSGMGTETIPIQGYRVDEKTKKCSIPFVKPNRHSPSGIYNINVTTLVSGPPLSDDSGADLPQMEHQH", "conditions": "CDKL2; NEW KINOMEscan"}, "[4]": {"system": "kinases (KINOMEscan panel)", "conditions": "NEW KINOMEscan; for KINOMEscan EGFR(L747-E749del, A750P): kinase EGFR(L747-E749del, A750P); for KINOMEscan EGFR(L747-T751del,Sins): kinase EGFR(L747-T751del,Sins); for KINOMEscan FLT3(ITD): kinase FLT3(ITD)"}, "[5]": {"target": "T3, kinases (KINOMEscan panel) (Homo sapiens, UniProt Q14164)", "T3 sequence (Q14164 1-716)": "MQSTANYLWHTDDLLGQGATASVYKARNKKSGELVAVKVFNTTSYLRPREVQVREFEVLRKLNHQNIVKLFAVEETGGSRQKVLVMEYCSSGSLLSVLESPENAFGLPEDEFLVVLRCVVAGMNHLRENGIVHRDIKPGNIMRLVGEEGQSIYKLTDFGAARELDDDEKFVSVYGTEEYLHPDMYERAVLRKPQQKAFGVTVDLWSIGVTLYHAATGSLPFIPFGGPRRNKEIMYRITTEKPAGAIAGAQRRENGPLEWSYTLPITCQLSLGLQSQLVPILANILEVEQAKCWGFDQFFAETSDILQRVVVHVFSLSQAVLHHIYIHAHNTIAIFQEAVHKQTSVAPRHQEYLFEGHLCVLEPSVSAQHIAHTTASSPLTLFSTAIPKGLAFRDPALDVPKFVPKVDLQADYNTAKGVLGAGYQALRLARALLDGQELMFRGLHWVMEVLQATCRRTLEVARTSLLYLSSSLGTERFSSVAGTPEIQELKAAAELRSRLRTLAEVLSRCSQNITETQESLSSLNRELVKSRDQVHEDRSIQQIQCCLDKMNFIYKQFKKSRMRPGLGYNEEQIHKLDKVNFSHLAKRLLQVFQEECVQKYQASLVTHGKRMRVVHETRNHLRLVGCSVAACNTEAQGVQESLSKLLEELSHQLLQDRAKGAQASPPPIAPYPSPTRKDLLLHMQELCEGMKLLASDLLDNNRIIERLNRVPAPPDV"}, "[6]": {"target": "kinases (KINOMEscan panel) (Homo sapiens, UniProt Q14004)"}, "[7]": {"target": "kinases (KINOMEscan panel) (Homo sapiens, UniProt Q9UQM7)", "sequence (Q9UQM7 whole entry)": "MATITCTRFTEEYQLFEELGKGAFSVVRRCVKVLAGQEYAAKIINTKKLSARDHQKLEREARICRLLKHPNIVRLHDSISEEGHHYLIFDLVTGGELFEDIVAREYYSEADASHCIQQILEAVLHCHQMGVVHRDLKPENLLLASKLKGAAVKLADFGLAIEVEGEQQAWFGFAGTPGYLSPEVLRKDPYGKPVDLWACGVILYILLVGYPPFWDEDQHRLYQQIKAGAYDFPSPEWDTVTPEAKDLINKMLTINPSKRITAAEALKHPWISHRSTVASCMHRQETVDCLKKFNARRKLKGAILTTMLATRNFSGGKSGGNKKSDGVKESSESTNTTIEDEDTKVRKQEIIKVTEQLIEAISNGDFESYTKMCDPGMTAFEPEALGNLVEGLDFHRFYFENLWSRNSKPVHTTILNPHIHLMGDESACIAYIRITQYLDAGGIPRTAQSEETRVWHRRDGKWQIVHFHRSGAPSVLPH", "conditions": "kinase CAMK2A; NEW KINOMEscan"}, "[8]": {"target": "kinases (KINOMEscan panel) (Homo sapiens, UniProt P42684)", "sequence (P42684 whole entry)": "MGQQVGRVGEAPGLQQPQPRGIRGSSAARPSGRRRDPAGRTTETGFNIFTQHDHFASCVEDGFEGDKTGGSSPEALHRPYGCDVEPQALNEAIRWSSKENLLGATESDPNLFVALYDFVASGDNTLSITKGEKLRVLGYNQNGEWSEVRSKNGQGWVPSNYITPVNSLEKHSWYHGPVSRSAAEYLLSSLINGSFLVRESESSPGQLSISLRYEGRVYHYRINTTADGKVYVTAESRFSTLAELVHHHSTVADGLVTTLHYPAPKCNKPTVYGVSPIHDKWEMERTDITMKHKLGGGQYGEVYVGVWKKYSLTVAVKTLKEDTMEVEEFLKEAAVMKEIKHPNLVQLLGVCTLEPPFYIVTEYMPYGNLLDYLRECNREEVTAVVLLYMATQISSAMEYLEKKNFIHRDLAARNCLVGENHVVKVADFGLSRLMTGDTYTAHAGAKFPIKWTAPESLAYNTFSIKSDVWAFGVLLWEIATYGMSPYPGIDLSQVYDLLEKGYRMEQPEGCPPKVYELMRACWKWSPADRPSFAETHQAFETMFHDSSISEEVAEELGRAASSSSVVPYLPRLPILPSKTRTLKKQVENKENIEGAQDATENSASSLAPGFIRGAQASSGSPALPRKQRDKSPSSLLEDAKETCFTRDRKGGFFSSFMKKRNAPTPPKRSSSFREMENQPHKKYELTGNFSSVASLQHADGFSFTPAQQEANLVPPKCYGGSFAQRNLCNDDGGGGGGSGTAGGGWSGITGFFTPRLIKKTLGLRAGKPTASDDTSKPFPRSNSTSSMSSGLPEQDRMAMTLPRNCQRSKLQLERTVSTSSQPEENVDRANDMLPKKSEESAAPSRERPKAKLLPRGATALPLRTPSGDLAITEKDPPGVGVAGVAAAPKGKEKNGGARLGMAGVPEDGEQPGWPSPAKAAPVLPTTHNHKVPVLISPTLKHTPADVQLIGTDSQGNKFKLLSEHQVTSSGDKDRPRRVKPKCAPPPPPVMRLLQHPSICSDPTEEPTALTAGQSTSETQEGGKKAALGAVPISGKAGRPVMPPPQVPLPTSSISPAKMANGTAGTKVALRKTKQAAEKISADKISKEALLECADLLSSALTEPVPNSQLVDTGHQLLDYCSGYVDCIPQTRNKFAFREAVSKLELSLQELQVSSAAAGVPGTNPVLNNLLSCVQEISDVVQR", "conditions": "ABL2; NEW KINOMEscan"}, "[9]": {"target": "kinases (KINOMEscan panel) (Homo sapiens, UniProt Q96SB4)", "sequence (Q96SB4 whole entry)": "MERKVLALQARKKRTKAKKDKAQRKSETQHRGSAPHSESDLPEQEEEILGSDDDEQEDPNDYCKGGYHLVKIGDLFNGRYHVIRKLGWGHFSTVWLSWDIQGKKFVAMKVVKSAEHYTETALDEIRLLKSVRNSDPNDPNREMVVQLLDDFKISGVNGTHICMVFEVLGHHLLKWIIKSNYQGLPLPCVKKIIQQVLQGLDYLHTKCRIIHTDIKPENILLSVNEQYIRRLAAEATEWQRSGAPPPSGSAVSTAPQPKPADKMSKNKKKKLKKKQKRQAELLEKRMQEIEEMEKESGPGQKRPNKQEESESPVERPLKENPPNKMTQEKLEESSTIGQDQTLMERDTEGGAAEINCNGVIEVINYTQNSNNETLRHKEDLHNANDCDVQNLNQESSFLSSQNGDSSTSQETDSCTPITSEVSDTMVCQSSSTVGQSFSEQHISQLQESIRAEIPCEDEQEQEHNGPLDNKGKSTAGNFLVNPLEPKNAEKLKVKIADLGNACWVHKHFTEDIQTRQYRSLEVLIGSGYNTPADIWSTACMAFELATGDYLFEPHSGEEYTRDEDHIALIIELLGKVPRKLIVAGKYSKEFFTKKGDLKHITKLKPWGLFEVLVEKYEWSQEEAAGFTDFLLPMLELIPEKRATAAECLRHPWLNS", "conditions": "kinase SRPK1; NEW KINOMEscan"}, "[10]": {"target": "kinases (KINOMEscan panel) (Homo sapiens, UniProt Q9P0L2)", "sequence (Q9P0L2 whole entry)": "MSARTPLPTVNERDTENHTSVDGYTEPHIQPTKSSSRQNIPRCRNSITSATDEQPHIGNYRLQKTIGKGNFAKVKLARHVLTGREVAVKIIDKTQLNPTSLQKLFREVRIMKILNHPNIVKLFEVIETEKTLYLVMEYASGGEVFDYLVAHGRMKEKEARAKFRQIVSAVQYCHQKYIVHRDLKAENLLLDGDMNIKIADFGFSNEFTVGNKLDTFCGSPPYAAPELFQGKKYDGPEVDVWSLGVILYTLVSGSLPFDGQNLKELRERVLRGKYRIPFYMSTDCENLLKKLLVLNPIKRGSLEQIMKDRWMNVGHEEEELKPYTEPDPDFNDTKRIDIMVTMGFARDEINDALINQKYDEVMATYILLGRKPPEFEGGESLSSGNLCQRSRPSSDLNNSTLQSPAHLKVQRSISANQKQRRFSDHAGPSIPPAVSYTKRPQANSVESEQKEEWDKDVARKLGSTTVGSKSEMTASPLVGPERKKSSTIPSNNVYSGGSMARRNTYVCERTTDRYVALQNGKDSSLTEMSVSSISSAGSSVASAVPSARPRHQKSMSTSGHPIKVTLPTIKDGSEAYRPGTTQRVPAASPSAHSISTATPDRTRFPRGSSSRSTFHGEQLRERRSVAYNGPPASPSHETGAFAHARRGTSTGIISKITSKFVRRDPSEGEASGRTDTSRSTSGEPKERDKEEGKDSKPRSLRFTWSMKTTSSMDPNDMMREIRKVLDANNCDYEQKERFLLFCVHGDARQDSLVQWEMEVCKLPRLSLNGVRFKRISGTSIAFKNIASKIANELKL", "conditions": "NEW KINOMEscan"}, "[11]": {"target": "kinases (KINOMEscan panel) (Homo sapiens, UniProt Q8N5S9)", "sequence (Q8N5S9 whole entry)": "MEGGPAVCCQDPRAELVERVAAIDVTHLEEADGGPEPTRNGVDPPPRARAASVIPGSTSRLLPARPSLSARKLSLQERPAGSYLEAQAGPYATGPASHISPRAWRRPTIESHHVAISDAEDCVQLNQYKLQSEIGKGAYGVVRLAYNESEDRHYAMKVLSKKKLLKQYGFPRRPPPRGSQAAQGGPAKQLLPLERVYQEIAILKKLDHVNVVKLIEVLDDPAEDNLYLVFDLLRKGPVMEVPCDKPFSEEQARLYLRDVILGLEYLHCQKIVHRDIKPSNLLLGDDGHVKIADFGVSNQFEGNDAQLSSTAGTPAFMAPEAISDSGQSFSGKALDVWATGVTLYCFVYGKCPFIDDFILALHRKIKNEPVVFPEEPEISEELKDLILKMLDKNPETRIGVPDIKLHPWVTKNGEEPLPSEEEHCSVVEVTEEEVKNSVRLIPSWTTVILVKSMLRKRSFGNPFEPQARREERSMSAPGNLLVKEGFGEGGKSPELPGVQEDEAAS", "conditions": "CAMKK1; NEW KINOMEscan"}, "[12]": {"target": "kinases (KINOMEscan panel) (Homo sapiens, UniProt P53671)", "sequence (P53671 whole entry)": "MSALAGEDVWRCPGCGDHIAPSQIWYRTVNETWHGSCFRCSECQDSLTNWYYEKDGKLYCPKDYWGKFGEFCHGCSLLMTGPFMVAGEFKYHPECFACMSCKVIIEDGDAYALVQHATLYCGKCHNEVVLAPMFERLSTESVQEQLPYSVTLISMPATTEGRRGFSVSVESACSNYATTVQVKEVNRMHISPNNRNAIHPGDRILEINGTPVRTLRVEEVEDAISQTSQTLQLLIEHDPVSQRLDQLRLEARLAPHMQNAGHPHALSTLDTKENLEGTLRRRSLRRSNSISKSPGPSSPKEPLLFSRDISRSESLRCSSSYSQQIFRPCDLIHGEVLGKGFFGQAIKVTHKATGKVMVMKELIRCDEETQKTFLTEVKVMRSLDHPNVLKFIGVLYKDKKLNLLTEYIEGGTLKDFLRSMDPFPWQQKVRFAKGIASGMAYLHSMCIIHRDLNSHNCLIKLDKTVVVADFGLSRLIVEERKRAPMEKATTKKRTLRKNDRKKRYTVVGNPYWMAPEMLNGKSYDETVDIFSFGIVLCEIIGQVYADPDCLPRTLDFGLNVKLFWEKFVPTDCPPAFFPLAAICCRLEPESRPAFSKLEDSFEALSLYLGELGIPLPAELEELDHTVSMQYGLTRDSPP", "conditions": "LIMK2; NEW KINOMEscan"}, "[13]": {"target": "kinases (KINOMEscan panel) (Homo sapiens, UniProt Q52WX2)", "sequence (Q52WX2 whole entry)": "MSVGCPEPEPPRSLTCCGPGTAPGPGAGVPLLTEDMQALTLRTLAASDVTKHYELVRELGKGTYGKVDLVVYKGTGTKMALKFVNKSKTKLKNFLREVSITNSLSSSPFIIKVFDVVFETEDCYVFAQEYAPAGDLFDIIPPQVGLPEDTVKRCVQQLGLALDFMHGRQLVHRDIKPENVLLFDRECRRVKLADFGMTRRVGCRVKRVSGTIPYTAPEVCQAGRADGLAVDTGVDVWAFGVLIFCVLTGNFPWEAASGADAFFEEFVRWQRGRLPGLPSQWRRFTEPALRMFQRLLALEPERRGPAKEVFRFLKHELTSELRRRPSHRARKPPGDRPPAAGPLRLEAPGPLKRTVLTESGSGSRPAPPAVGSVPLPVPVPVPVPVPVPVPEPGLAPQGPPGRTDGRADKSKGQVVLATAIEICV", "conditions": "SBK1; NEW KINOMEscan"}},
  "note": "Read-outs that look alike come from different tables or passages of the source.",
  "data": [
    {"smiles": "Cc1cccc(-c2nc(Nc3ccc4nn(C)cc4c3)c3ccccc3n2)n1", "note": "[NK167]", "values": [
      {"measurement": "KINOMEscan TYRO3", "setting": "[1]", "result": 4},
      {"measurement": "KINOMEscan PIK3CA(Q546K)", "setting": "[2]", "result": 0},
      {"measurement": "KINOMEscan CDKL2", "setting": "[3]", "result": 0},
      {"measurement": "KINOMEscan EGFR(L747-S752del, P753S)", "setting": "[4]", "result": 0},
      {"measurement": "KINOMEscan FLT3(ITD,D835V)", "setting": "[4]", "result": 7},
      {"measurement": "KINOMEscan FLT3(ITD,F691L)", "setting": "[4]", "result": 33},
      {"measurement": "KINOMEscan PRKAA2", "setting": "[4]", "result": 11},
      {"measurement": "KINOMEscan EGFR(L747-E749del, A750P)", "setting": "[4]", "result": 0},
      {"measurement": "KINOMEscan EGFR(L747-T751del,Sins)", "setting": "[4]", "result": 0},
      {"measurement": "KINOMEscan FLT3(ITD)", "setting": "[4]", "result": 0},
      {"measurement": "KINOMEscan PRKAA2", "setting": "[4]; kinase PRKAA2", "result": 0},
      {"measurement": "KINOMEscan IKBKE/IKK-epsilon", "setting": "[5]", "result": 0},
      {"measurement": "KINOMEscan CDK13", "setting": "[6]", "result": 8},
      {"measurement": "KINOMEscan CAMK2A", "setting": "[7]", "result": 0},
      {"measurement": "KINOMEscan ABL2", "setting": "[8]", "result": 0},
      {"measurement": "KINOMEscan SRPK1", "setting": "[9]", "result": 2},
      {"measurement": "KINOMEscan MARK1", "setting": "[10]", "result": 21},
      {"measurement": "KINOMEscan CAMKK1", "setting": "[11]", "result": 0},
      {"measurement": "KINOMEscan LIMK2", "setting": "[12]", "result": 3},
      {"measurement": "KINOMEscan SBK1", "setting": "[13]", "result": 0}
    ]},
    {"smiles": "Cc1cccc(-c2nc(N(C)c3ccc4ncsc4c3)c3ccccc3n2)n1", "note": "[NK-161]", "values": [
      {"measurement": "KINOMEscan TYRO3", "setting": "[1]", "result": 21},
      {"measurement": "KINOMEscan PIK3CA(Q546K)", "setting": "[2]", "result": 7},
      {"measurement": "KINOMEscan CDKL2", "setting": "[3]", "result": 0},
      {"measurement": "KINOMEscan EGFR(L747-S752del, P753S)", "setting": "[4]", "result": 19},
      {"measurement": "KINOMEscan FLT3(ITD,D835V)", "setting": "[4]", "result": 25},
      {"measurement": "KINOMEscan FLT3(ITD,F691L)", "setting": "[4]", "result": 25},
      {"measurement": "KINOMEscan PRKAA2", "setting": "[4]", "result": 20},
      {"measurement": "KINOMEscan EGFR(L747-E749del, A750P)", "setting": "[4]", "result": 0},
      {"measurement": "KINOMEscan EGFR(L747-T751del,Sins)", "setting": "[4]", "result": 0},
      {"measurement": "KINOMEscan FLT3(ITD)", "setting": "[4]", "result": 4},
      {"measurement": "KINOMEscan PRKAA2", "setting": "[4]; kinase PRKAA2", "result": 0},
      {"measurement": "KINOMEscan IKBKE/IKK-epsilon", "setting": "[5]", "result": 0},
      {"measurement": "KINOMEscan CDK13", "setting": "[6]", "result": 6},
      {"measurement": "KINOMEscan CAMK2A", "setting": "[7]", "result": 0},
      {"measurement": "KINOMEscan ABL2", "setting": "[8]", "result": 8},
      {"measurement": "KINOMEscan SRPK1", "setting": "[9]", "result": 7},
      {"measurement": "KINOMEscan MARK1", "setting": "[10]", "result": 13},
      {"measurement": "KINOMEscan CAMKK1", "setting": "[11]", "result": 9},
      {"measurement": "KINOMEscan LIMK2", "setting": "[12]", "result": 9},
      {"measurement": "KINOMEscan SBK1", "setting": "[13]", "result": 0}
    ]}
  ]
}
